Measured values: ChEMBL document CHEMBL1629583, “Establishment of in vitro susceptibility testing methodologies and comparative activities of piperacillin in combination with the penem {beta}-lactamase inhibitor BLI-489” (2009)

Key:
Type in all cases: functional
Streptococcus pneumoniae [1] = test: Antimicrobial activity against penicillin-intermediate Streptococcus pneumoniae clinical isolate after 18 to 22 hrs by broth microdilution method
Citrobacter freundii [2] = test: Antimicrobial activity against Citrobacter freundii clinical isolate after 18 to 22 hrs by broth microdilution method
Enterococcus faecium = test: Antimicrobial activity against Enterococcus faecium clinical isolate after 18 to 22 hrs by broth microdilution method
Citrobacter freundii [3] = test: Antimicrobial activity against AmpC beta-lactamase-producing Citrobacter freundii clinical isolate after 18 to 22 hrs by broth microdilution method
Providencia stuartii = test: Antimicrobial activity against Providencia stuartii clinical isolate after 18 to 22 hrs by broth microdilution method
[4] = system: Acinetobacter calcoaceticus; test: Antimicrobial activity against Acinetobacter calcoaceticus clinical isolate after 18 to 22 hrs by broth microdilution method
Escherichia coli [5] = test: Antimicrobial activity against class A extended spectrum beta-lactamase- and class D OXA- producing Escherichia coli clinical isolate after 18 to 22 hrs by broth microdilution method
[6] = system: Stenotrophomonas maltophilia; test: Antimicrobial activity against Stenotrophomonas maltophilia clinical isolate after 18 to 22 hrs by broth microdilution method
Klebsiella pneumoniae [7] = test: Antimicrobial activity against AmpC- producing Klebsiella pneumoniae clinical isolate after 18 to 22 hrs by broth microdilution method
Klebsiella pneumoniae [8] = test: Antimicrobial activity against Klebsiella pneumoniae clinical isolate after 18 to 22 hrs by broth microdilution method
Citrobacter koseri = test: Antimicrobial activity against Citrobacter koseri clinical isolate after 18 to 22 hrs by broth microdilution method
Morganella morganii = test: Antimicrobial activity against Morganella morganii clinical isolate after 18 to 22 hrs by broth microdilution method
Burkholderia cepacia = test: Antimicrobial activity against Burkholderia cepacia clinical isolate after 18 to 22 hrs by broth microdilution method
Streptococcus pneumoniae [9] = test: Antimicrobial activity against penicillin-resistant Streptococcus pneumoniae clinical isolate after 18 to 22 hrs by broth microdilution method
Streptococcus pneumoniae [10] = test: Antimicrobial activity against penicillin-susceptible Streptococcus pneumoniae clinical isolate after 18 to 22 hrs by broth microdilution method
[11] = system: Staphylococcus haemolyticus; test: Antimicrobial activity against Staphylococcus haemolyticus clinical isolate after 18 to 22 hrs by broth microdilution method
Pseudomonas aeruginosa = test: Antimicrobial activity against Pseudomonas aeruginosa clinical isolate after 18 to 22 hrs by broth microdilution method
Escherichia coli [12] = test: Antimicrobial activity against AmpC beta-lactamase-producing Escherichia coli clinical isolate after 18 to 22 hrs by broth microdilution method
Providencia rettgeri = test: Antimicrobial activity against Providencia rettgeri clinical isolate after 18 to 22 hrs by broth microdilution method
Escherichia coli [13] = test: Antimicrobial activity against Escherichia coli clinical isolate after 18 to 22 hrs by broth microdilution method
[14] = system: Enterococcus casseliflavus; test: Antimicrobial activity against Enterococcus casseliflavus clinical isolate after 18 to 22 hrs by broth microdilution method
Escherichia coli [15] = test: Antimicrobial activity against class A extended spectrum beta-lactamase- producing Escherichia coli clinical isolate after 18 to 22 hrs by broth microdilution method
Streptococcus pyogenes = test: Antimicrobial activity against Streptococcus pyogenes clinical isolate after 18 to 22 hrs by broth microdilution method
Serratia marcescens [16] = test: Antimicrobial activity against Serratia marcescens clinical isolate after 18 to 22 hrs by broth microdilution method
Enterococcus durans = test: Antimicrobial activity against Enterococcus durans clinical isolate after 18 to 22 hrs by broth microdilution method
Klebsiella pneumoniae [17] = test: Antimicrobial activity against class A extended spectrum beta-lactamase- producing Klebsiella pneumoniae clinical isolate after 18 to 22 hrs by broth microdilution method
Klebsiella pneumoniae [18] = test: Antimicrobial activity against class A extended spectrum beta-lactamase- and class D OXA- producing Klebsiella pneumoniae clinical isolate after 18 to 22 hrs by broth microdilution method
Serratia marcescens [19] = test: Antimicrobial activity against AmpC beta-lactamase-producing Serratia marcescens clinical isolate after 18 to 22 hrs by broth microdilution method
Enterococcus avium = test: Antimicrobial activity against Enterococcus avium clinical isolate after 18 to 22 hrs by broth microdilution method
Haemophilus influenzae = test: Antimicrobial activity against beta-lactamase-producing Haemophilus influenzae clinical isolate after 18 to 22 hrs by broth microdilution method
Acinetobacter johnsonii = test: Antimicrobial activity against Acinetobacter johnsonii clinical isolate after 18 to 22 hrs by broth microdilution method
Enterococcus faecalis = test: Antimicrobial activity against vancomycin-resistant Enterococcus faecalis clinical isolate after 18 to 22 hrs by broth microdilution method
Enterobacter cloacae = test: Antimicrobial activity against Enterobacter cloacae clinical isolate after 18 to 22 hrs by broth microdilution method
[20] = system: Staphylococcus epidermidis; test: Antimicrobial activity against methicillin-susceptible Staphylococcus epidermidis clinical isolate after 18 to 22 hrs by broth microdilution method
Staphylococcus aureus = test: Antimicrobial activity against methicillin-susceptible Staphylococcus aureus clinical isolate after 18 to 22 hrs by broth microdilution method
Proteus mirabilis = test: Antimicrobial activity against Proteus mirabilis clinical isolate after 18 to 22 hrs by broth microdilution method
Acinetobacter junii = test: Antimicrobial activity against Acinetobacter junii clinical isolate after 18 to 22 hrs by broth microdilution method
Klebsiella oxytoca = test: Antimicrobial activity against Klebsiella oxytoca clinical isolate after 18 to 22 hrs by broth microdilution method
Klebsiella aerogenes = test: Antimicrobial activity against Enterobacter aerogenes clinical isolate after 18 to 22 hrs by broth microdilution method
Streptococcus agalactiae = test: Antimicrobial activity against Streptococcus agalactiae clinical isolate after 18 to 22 hrs by broth microdilution method

CCN1CCN(C(=O)N[C@@H](C(=O)N[C@@H]2C(=O)N3[C@@H]2SC(C)(C)[C@@H]3C(=O)O)c2ccccc2)C(=O)C1=O [PIPERACILLIN]
64 µg/mL: MIC90 (Enterococcus avium) | MIC50 (Staphylococcus aureus) | MIC90 (Klebsiella oxytoca)
128 µg/mL: MIC90 (Klebsiella pneumoniae [8]) | MIC90 (Burkholderia cepacia) | MIC90 (Acinetobacter johnsonii) | MIC90 (Acinetobacter junii) | MIC90 (Klebsiella aerogenes)
4 µg/mL: MIC50 (Citrobacter freundii [2]) | MIC90 (Streptococcus pneumoniae [9]) | MIC50 [14] | MIC50 (Serratia marcescens [16]) | MIC50 (Enterococcus durans) | MIC50 (Acinetobacter johnsonii) | MIC50 (Enterobacter cloacae) | MIC50 (Acinetobacter junii) | MIC50 (Klebsiella aerogenes)
2 µg/mL: MIC50 (Providencia stuartii) | MIC50 (Streptococcus pneumoniae [9]) | MIC50 (Providencia rettgeri) | MIC50 (Escherichia coli [13]) | MIC50 (Enterococcus faecalis) | MIC50 [20]
0.03 µg/mL: MIC90 (Streptococcus pneumoniae [10]) | MIC50 (Streptococcus pyogenes)
> 128 µg/mL: MIC90 (Citrobacter freundii [2]) | MIC90 (Enterococcus faecium) | MIC50 (Citrobacter freundii [3]) | MIC90 (Citrobacter freundii [3]) | MIC50 [4] | MIC90 [4] | MIC (Escherichia coli [5]) | MIC50 (Escherichia coli [5]) | MIC90 (Escherichia coli [5]) | MIC [6] | MIC50 [6] | MIC90 [6] | MIC50 (Klebsiella pneumoniae [7]) | MIC90 (Klebsiella pneumoniae [7]) | MIC90 (Citrobacter koseri) | MIC90 (Morganella morganii) | MIC50 [11] | MIC90 [11] | MIC90 (Pseudomonas aeruginosa) | MIC50 (Escherichia coli [12]) | MIC90 (Escherichia coli [12]) | MIC90 (Escherichia coli [13]) | MIC (Escherichia coli [15]) | MIC50 (Escherichia coli [15]) | MIC90 (Escherichia coli [15]) | MIC90 (Serratia marcescens [16]) | MIC (Klebsiella pneumoniae [17]) | MIC50 (Klebsiella pneumoniae [17]) | MIC90 (Klebsiella pneumoniae [17]) | MIC50 (Klebsiella pneumoniae [18]) | MIC90 (Klebsiella pneumoniae [18]) | MIC50 (Serratia marcescens [19]) | MIC90 (Serratia marcescens [19]) | MIC90 (Enterococcus faecalis) | MIC90 (Enterobacter cloacae) | MIC90 (Staphylococcus aureus) | MIC50 (Proteus mirabilis) | MIC90 (Proteus mirabilis)
0.015 µg/mL: MIC50 (Streptococcus pneumoniae [10])
0.12 µg/mL: MIC50 (Streptococcus agalactiae)
0.25 µg/mL: MIC50 (Streptococcus pneumoniae [1]) | MIC90 (Streptococcus agalactiae)
8 µg/mL: MIC50 (Klebsiella pneumoniae [8]) | MIC50 (Morganella morganii) | MIC50 (Haemophilus influenzae) | MIC90 [20] | MIC50 (Klebsiella oxytoca)
1 µg/mL: MIC90 (Streptococcus pneumoniae [1])
0.06 µg/mL: MIC90 (Streptococcus pyogenes)
16 µg/mL: MIC50 (Pseudomonas aeruginosa) | MIC90 [14] | MIC90 (Enterococcus durans) | MIC50 (Enterococcus avium)
32 µg/mL: MIC50 (Enterococcus faecium) | MIC50 (Citrobacter koseri) | MIC50 (Burkholderia cepacia) | MIC90 (Haemophilus influenzae)
